PubChem BioAssay AID1963837 (Molecular Pharmacology Branch, DTP, NCI, 2024)

The molecules below were run on 843126-344-R-J1-PDC complex spheroid viability (assay: Anticancer human tumor 843126-344-R-J1-PDC patient-derived melanoma cell line growth inhibition [POLQ]). Conditions: second compound 0.1 µM; first compound 0.316 µM; stronger effect = lower value.
Summary of the method: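 Three-cell-type spheroids modelling solid tumor plus stroma served as the readout system; POL inhibitors were tested individually and in combination, concentration ranges set by clinical Cmax where known.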
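Also: spheroids exposed to drugs for seven days before readout.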

Question: Which viability, T/C does the source give for `O=C(c1cc(Cc2n[nH]c(=O)c3ccccc23)ccc1F)N1CCN(C(=O)C2CC2)CC1` + Nc1ccc(C#CCN(C(=O)Cc2ncc(C(F)(F)F)cc2C(F)(F)F)c2ccc(F)cc2)nn1 here?
Answer: The viability, T/C was 86.9%.

Question: How did the viability, T/C turn out when `O=c1[nH]cc(F)c(=O)[nH]1` + Nc1ccc(C#CCN(C(=O)Cc2ncc(C(F)(F)F)cc2C(F)(F)F)c2ccc(F)cc2)nn1 was run?
Answer: The viability, T/C was 103%.

Same assay, conditions: second compound 0.1 µM; first compound 1 µM; stronger effect = lower value

Question: `C=CCn1c(=O)c2cnc(Nc3ccc(N4CCN(C)CC4)cc3)nc2n1-c1cccc(C(C)(C)O)n1` + Nc1ccc(C#CCN(C(=O)Cc2ncc(C(F)(F)F)cc2C(F)(F)F)c2ccc(F)cc2)nn1 was tested. Which viability, T/C did it give?
Answer: The viability, T/C was 77.6%.

Question: Which viability, T/C does the source give for `CCc1c2c(nc3ccc(O)cc13)-c1cc3c(c(=O)n1C2)COC(=O)[C@]3(O)CC` + Nc1ccc(C#CCN(C(=O)Cc2ncc(C(F)(F)F)cc2C(F)(F)F)c2ccc(F)cc2)nn1 here?
Answer: Its viability, T/C is 47.9%.

Question: How did the viability, T/C turn out when `COc1cccc(OCCCN)c1-c1cc(Nc2cnc(C#N)cn2)n[nH]1` + Nc1ccc(C#CCN(C(=O)Cc2ncc(C(F)(F)F)cc2C(F)(F)F)c2ccc(F)cc2)nn1 was run?
Answer: Its viability, T/C is 32.1%.

Question: How did the viability, T/C turn out when `Nc1ccn(C2OC(CO)C(O)C2(F)F)c(=O)n1` (configuration not stated) + Nc1ccc(C#CCN(C(=O)Cc2ncc(C(F)(F)F)cc2C(F)(F)F)c2ccc(F)cc2)nn1 was run?
Answer: Its viability, T/C is 39.8%.

Question: `O=C(c1cc(Cc2n[nH]c(=O)c3ccccc23)ccc1F)N1CCN(C(=O)C2CC2)CC1` + Nc1ccc(C#CCN(C(=O)Cc2ncc(C(F)(F)F)cc2C(F)(F)F)c2ccc(F)cc2)nn1 was tested. Which viability, T/C did it give?
Answer: Its viability, T/C is 91.3%.

Question: For `O=c1[nH]cc(F)c(=O)[nH]1` + Nc1ccc(C#CCN(C(=O)Cc2ncc(C(F)(F)F)cc2C(F)(F)F)c2ccc(F)cc2)nn1, which viability, T/C is on record?
Answer: Its viability, T/C is 89%.

Same assay, conditions: second compound 0.1 µM; first compound 3.16 µM; stronger effect = lower value

Question: Which viability, T/C does the source give for `Nc1ccn(C2OC(CO)C(O)C2(F)F)c(=O)n1` (configuration not stated) + Nc1ccc(C#CCN(C(=O)Cc2ncc(C(F)(F)F)cc2C(F)(F)F)c2ccc(F)cc2)nn1 here?
Answer: The viability, T/C was 38.5%.

Question: With `O=C(c1cc(Cc2n[nH]c(=O)c3ccccc23)ccc1F)N1CCN(C(=O)C2CC2)CC1` + Nc1ccc(C#CCN(C(=O)Cc2ncc(C(F)(F)F)cc2C(F)(F)F)c2ccc(F)cc2)nn1 as the molecule, how does the viability, T/C read?
Answer: Its viability, T/C is 82.7%.

Question: How did the viability, T/C turn out when `O=c1[nH]cc(F)c(=O)[nH]1` + Nc1ccc(C#CCN(C(=O)Cc2ncc(C(F)(F)F)cc2C(F)(F)F)c2ccc(F)cc2)nn1 was run?
Answer: The viability, T/C was 82.4%.

Same assay, conditions: second compound 0.1 µM; first compound 10 µM; stronger effect = lower value

Question: For `Nc1ccn(C2OC(CO)C(O)C2(F)F)c(=O)n1` (configuration not stated) + Nc1ccc(C#CCN(C(=O)Cc2ncc(C(F)(F)F)cc2C(F)(F)F)c2ccc(F)cc2)nn1, which viability, T/C is on record?
Answer: Its viability, T/C is 41.8%.

Question: Which viability, T/C does the source give for `O=C(c1cc(Cc2n[nH]c(=O)c3ccccc23)ccc1F)N1CCN(C(=O)C2CC2)CC1` + Nc1ccc(C#CCN(C(=O)Cc2ncc(C(F)(F)F)cc2C(F)(F)F)c2ccc(F)cc2)nn1 here?
Answer: The viability, T/C was 67.1%.

Question: With `O=c1[nH]cc(F)c(=O)[nH]1` + Nc1ccc(C#CCN(C(=O)Cc2ncc(C(F)(F)F)cc2C(F)(F)F)c2ccc(F)cc2)nn1 as the molecule, how does the viability, T/C read?
Answer: The viability, T/C was 93.4%.

Same assay, conditions: second compound 0.316 µM; first compound 0.00316 µM; stronger effect = lower value

Question: `C=CCn1c(=O)c2cnc(Nc3ccc(N4CCN(C)CC4)cc3)nc2n1-c1cccc(C(C)(C)O)n1` + Nc1ccc(C#CCN(C(=O)Cc2ncc(C(F)(F)F)cc2C(F)(F)F)c2ccc(F)cc2)nn1 was tested. Which viability, T/C did it give?
Answer: The viability, T/C was 95.1%.

Question: For `CCc1c2c(nc3ccc(O)cc13)-c1cc3c(c(=O)n1C2)COC(=O)[C@]3(O)CC` + Nc1ccc(C#CCN(C(=O)Cc2ncc(C(F)(F)F)cc2C(F)(F)F)c2ccc(F)cc2)nn1, which viability, T/C is on record?
Answer: Its viability, T/C is 69.5%.

Question: Which viability, T/C does the source give for `COc1cccc(OCCCN)c1-c1cc(Nc2cnc(C#N)cn2)n[nH]1` + Nc1ccc(C#CCN(C(=O)Cc2ncc(C(F)(F)F)cc2C(F)(F)F)c2ccc(F)cc2)nn1 here?
Answer: The viability, T/C was 92.9%.

Same assay, conditions: second compound 0.316 µM; first compound 0.01 µM; stronger effect = lower value

Question: For `C=CCn1c(=O)c2cnc(Nc3ccc(N4CCN(C)CC4)cc3)nc2n1-c1cccc(C(C)(C)O)n1` + Nc1ccc(C#CCN(C(=O)Cc2ncc(C(F)(F)F)cc2C(F)(F)F)c2ccc(F)cc2)nn1, which viability, T/C is on record?
Answer: The viability, T/C was 90.7%.

Question: With `CCc1c2c(nc3ccc(O)cc13)-c1cc3c(c(=O)n1C2)COC(=O)[C@]3(O)CC` + Nc1ccc(C#CCN(C(=O)Cc2ncc(C(F)(F)F)cc2C(F)(F)F)c2ccc(F)cc2)nn1 as the molecule, how does the viability, T/C read?
Answer: Its viability, T/C is 56.3%.

Question: Which viability, T/C does the source give for `COc1cccc(OCCCN)c1-c1cc(Nc2cnc(C#N)cn2)n[nH]1` + Nc1ccc(C#CCN(C(=O)Cc2ncc(C(F)(F)F)cc2C(F)(F)F)c2ccc(F)cc2)nn1 here?
Answer: Its viability, T/C is 72.5%.

Same assay, conditions: second compound 0.316 µM; first compound 0.0316 µM; stronger effect = lower value

Question: `C=CCn1c(=O)c2cnc(Nc3ccc(N4CCN(C)CC4)cc3)nc2n1-c1cccc(C(C)(C)O)n1` + Nc1ccc(C#CCN(C(=O)Cc2ncc(C(F)(F)F)cc2C(F)(F)F)c2ccc(F)cc2)nn1 was tested. Which viability, T/C did it give?
Answer: Its viability, T/C is 98.8%.

Question: For `CCc1c2c(nc3ccc(O)cc13)-c1cc3c(c(=O)n1C2)COC(=O)[C@]3(O)CC` + Nc1ccc(C#CCN(C(=O)Cc2ncc(C(F)(F)F)cc2C(F)(F)F)c2ccc(F)cc2)nn1, which viability, T/C is on record?
Answer: The viability, T/C was 61.3%.

Question: Which viability, T/C does the source give for `COc1cccc(OCCCN)c1-c1cc(Nc2cnc(C#N)cn2)n[nH]1` + Nc1ccc(C#CCN(C(=O)Cc2ncc(C(F)(F)F)cc2C(F)(F)F)c2ccc(F)cc2)nn1 here?
Answer: The viability, T/C was 59.6%.

Question: Which viability, T/C does the source give for `Nc1ccn(C2OC(CO)C(O)C2(F)F)c(=O)n1` (configuration not stated) + Nc1ccc(C#CCN(C(=O)Cc2ncc(C(F)(F)F)cc2C(F)(F)F)c2ccc(F)cc2)nn1 here?
Answer: Its viability, T/C is 48.2%.

Question: Which viability, T/C does the source give for `O=C(c1cc(Cc2n[nH]c(=O)c3ccccc23)ccc1F)N1CCN(C(=O)C2CC2)CC1` + Nc1ccc(C#CCN(C(=O)Cc2ncc(C(F)(F)F)cc2C(F)(F)F)c2ccc(F)cc2)nn1 here?
Answer: Its viability, T/C is 102%.

Question: Which viability, T/C does the source give for `O=c1[nH]cc(F)c(=O)[nH]1` + Nc1ccc(C#CCN(C(=O)Cc2ncc(C(F)(F)F)cc2C(F)(F)F)c2ccc(F)cc2)nn1 here?
Answer: Its viability, T/C is 92.4%.

Same assay, conditions: second compound 0.316 µM; first compound 0.1 µM; stronger effect = lower value

Question: With `C=CCn1c(=O)c2cnc(Nc3ccc(N4CCN(C)CC4)cc3)nc2n1-c1cccc(C(C)(C)O)n1` + Nc1ccc(C#CCN(C(=O)Cc2ncc(C(F)(F)F)cc2C(F)(F)F)c2ccc(F)cc2)nn1 as the molecule, how does the viability, T/C read?
Answer: Its viability, T/C is 105%.

Question: `CCc1c2c(nc3ccc(O)cc13)-c1cc3c(c(=O)n1C2)COC(=O)[C@]3(O)CC` + Nc1ccc(C#CCN(C(=O)Cc2ncc(C(F)(F)F)cc2C(F)(F)F)c2ccc(F)cc2)nn1 was tested. Which viability, T/C did it give?
Answer: Its viability, T/C is 57.2%.

Question: `COc1cccc(OCCCN)c1-c1cc(Nc2cnc(C#N)cn2)n[nH]1` + Nc1ccc(C#CCN(C(=O)Cc2ncc(C(F)(F)F)cc2C(F)(F)F)c2ccc(F)cc2)nn1 was tested. Which viability, T/C did it give?
Answer: Its viability, T/C is 50%.

Question: `Nc1ccn(C2OC(CO)C(O)C2(F)F)c(=O)n1` (configuration not stated) + Nc1ccc(C#CCN(C(=O)Cc2ncc(C(F)(F)F)cc2C(F)(F)F)c2ccc(F)cc2)nn1 was tested. Which viability, T/C did it give?
Answer: Its viability, T/C is 38.5%.

Question: `O=C(c1cc(Cc2n[nH]c(=O)c3ccccc23)ccc1F)N1CCN(C(=O)C2CC2)CC1` + Nc1ccc(C#CCN(C(=O)Cc2ncc(C(F)(F)F)cc2C(F)(F)F)c2ccc(F)cc2)nn1 was tested. Which viability, T/C did it give?
Answer: The viability, T/C was 98%.

Question: For `O=c1[nH]cc(F)c(=O)[nH]1` + Nc1ccc(C#CCN(C(=O)Cc2ncc(C(F)(F)F)cc2C(F)(F)F)c2ccc(F)cc2)nn1, which viability, T/C is on record?
Answer: The viability, T/C was 109%.
